Where “and” joins values, the source holds several entries; their conditions need not be identical. Equal values may be shown once. Inconclusive results and toxic doses are left out. Rule for the calls: active = survival T/C of 150% or more; inactive = T/C below 125% in these data.
Tested on: CD2F1 mice, L1210 leukemia ip, survival T/C
Experiment: NCI In Vivo Anticancer Drug Screen. Data for tumor model L1210 Leukemia (intraperitoneal) in CD2F1 (CDF1) mice
Conditions: higher = longer survival
Summary of the method: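 Ratio T/C, where T is the treated-group value and C the vehicle-dosed control value, from mice implanted with a transplantable tumor.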

[1] = endpoint: mean survival time, dose: 100.0 mg/kg/injection, schedule: Q04DX003 (ip), vehicle: saline
[2] = endpoint: mean survival time, dose: 200.0 mg/kg/injection, schedule: Q04DX003 (ip), vehicle: saline
[3] = endpoint: mean survival time, dose: 400.0 mg/kg/injection, schedule: Q04DX003 (ip), vehicle: saline
[4] = endpoint: mean survival time, dose: 100.0 mg/kg/injection, schedule: Q04DX003 (ip), vehicle: saline with Tween-80
[5] = endpoint: mean survival time, dose: 50.0 mg/kg/injection, schedule: Q04DX002 (ip), vehicle: saline with Tween-80
[6] = endpoint: mean survival time, dose: 100.0 mg/kg/injection, schedule: Q04DX002 (ip), vehicle: saline with Tween-80
[7] = endpoint: mean survival time, dose: 200.0 mg/kg/injection, schedule: Q04DX002 (ip), vehicle: saline with Tween-80
[8] = endpoint: mean survival time, dose: 400.0 mg/kg/injection, schedule: Q04DX002 (ip), vehicle: saline with Tween-80
[9] = endpoint: mean survival time, dose: 50.0 mg/kg/injection, schedule: Q01DX009 (ip), vehicle: saline with Tween-80
[10] = endpoint: mean survival time, dose: 100.0 mg/kg/injection, schedule: Q01DX009 (ip), vehicle: saline with Tween-80
[11] = endpoint: mean survival time, dose: 200.0 mg/kg/injection, schedule: Q01DX009 (ip), vehicle: saline with Tween-80

Measured: T/C

CSC(=S)NN=C(C)C
inactive: endpoint: mean survival time, dose: 6.25 mg/kg/injection, schedule: Q01DX009 (ip), vehicle: saline sonified 89 % of control | endpoint: mean survival time, dose: 6.25 mg/kg/injection, schedule: Q04DX003 (ip), vehicle: saline with Tween-80 96 % of control | endpoint: mean survival time, dose: 12.5 mg/kg/injection, schedule: Q01DX009 (ip), vehicle: saline sonified 87 % of control | endpoint: mean survival time, dose: 12.5 mg/kg/injection, schedule: Q04DX003 (ip), vehicle: saline with Tween-80 96 % of control

CCOC(=O)C(C)Sc1nn(C2OC(COC(=O)c3ccccc3)C(OC(=O)c3ccccc3)C2OC(=O)c2ccccc2)c(=O)[nH]c1=O (configuration not stated)
inactive: endpoint: mean survival time, dose: 12.5 mg/kg/injection, schedule: Q01DX005 (ip), vehicle: distilled water + Tween-80 97 % of control | endpoint: mean survival time, dose: 25.0 mg/kg/injection, schedule: Q01DX005 (ip), vehicle: distilled water + Tween-80 97 % of control | endpoint: mean survival time, dose: 50.0 mg/kg/injection, schedule: Q01DX005 (ip), vehicle: distilled water + Tween-80 95 % of control | endpoint: mean survival time, dose: 100.0 mg/kg/injection, schedule: Q01DX005 (ip), vehicle: distilled water + Tween-80 95 % of control | endpoint: mean survival time, dose: 200.0 mg/kg/injection, schedule: Q01DX005 (ip), vehicle: distilled water + Tween-80 89 % of control

NS(=O)(=O)c1ccc(NC(=O)/C=C/C(=O)O)cc1
inactive: [1] 101 % of control | [2] 97 % of control | [3] 97 % of control

O=C1C(c2ccccc2)=C(c2ccccc2)CC(c2ccccc2)C1c1ccccc1 (configuration not stated)
inactive: [4] 97 % of control | endpoint: mean survival time, dose: 200.0 mg/kg/injection, schedule: Q04DX003 (ip), vehicle: saline with Tween-80 97 % of control | endpoint: mean survival time, dose: 400.0 mg/kg/injection, schedule: Q04DX003 (ip), vehicle: saline with Tween-80 95 % of control

CS(=O)(=O)c1nnc(S(C)(=O)=O)s1
inactive: endpoint: mean survival time, dose: 3.0 mg/kg/injection, schedule: Q01DX009 (ip), vehicle: saline sonified 104 % of control | endpoint: mean survival time, dose: 6.0 mg/kg/injection, schedule: Q01DX009 (ip), vehicle: saline sonified 102 % of control | endpoint: mean survival time, dose: 12.0 mg/kg/injection, schedule: Q01DX009 (ip), vehicle: saline sonified 113 % of control | endpoint: mean survival time, dose: 12.5 mg/kg/injection, schedule: Q04DX003 (ip), vehicle: saline sonified 104 % of control

CCOC1CCN(CCCn2c3ccccc3c3ccccc32)CC1
inactive: endpoint: mean survival time, dose: 25.0 mg/kg/injection, schedule: Q04DX002 (ip), vehicle: saline with Tween-80 95 % of control | [5] 100 % of control | [6] 97 % of control and 111 % of control

Oc1ccccc1C=NC1CCCCC1N=Cc1ccccc1O.[Cu] (configuration not stated)
inactive: [6] 88 % of control | [7] 88 % of control | [8] 91 % of control

Nc1nc(N)c2nc(NCc3ccc(C(=O)NC(CCC(=O)O)C(=O)O)cc3)cnc2n1 (configuration not stated)
inactive: endpoint: mean survival time, dose: 50.0 mg/kg/injection, schedule: Q01DX009 (ip), vehicle: saline 103 % of control | endpoint: mean survival time, dose: 50.0 mg/kg/injection, schedule: Q04DX003 (ip), vehicle: saline 97 % of control | endpoint: mean survival time, dose: 100.0 mg/kg/injection, schedule: Q01DX009 (ip), vehicle: saline 103 % of control | [1] 96 % of control | endpoint: mean survival time, dose: 200.0 mg/kg/injection, schedule: Q01DX009 (ip), vehicle: saline 116 % of control | [2] 96 % of control | [3] 100 % of control

O=c1c2ccccc2nc2c3ccccc3nnn12
inactive: [5] 98 % of control | [6] 120 % of control | [7] 91 % of control

CC1(CO)C(O)CCC2(C)C1CCC1CC3CC12CCC3(O)CO (configuration not stated)
inactive: endpoint: mean survival time, dose: 6.25 mg/kg/injection, schedule: Q01DX009 (ip), vehicle: saline with Tween-80 119 % of control and 102 % of control | endpoint: mean survival time, dose: 12.5 mg/kg/injection, schedule: Q01DX009 (ip), vehicle: saline with Tween-80 106 % of control and 109 % of control | endpoint: mean survival time, dose: 25.0 mg/kg/injection, schedule: Q01DX009 (ip), vehicle: saline with Tween-80 110 % of control and 111 % of control | [9] 118 % of control and 111 % of control | [10] 121 % of control and 122 % of control | [11] 114 % of control and 102 % of control

C1CCC2C[N-]CCC2C1.C1CCC2C[N-]CCC2C1.C1CCC2C[N-]CCC2C1.C1CCC2C[N-]CCC2C1.[Cl][Rh][Cl] (configuration not stated)
inactive: endpoint: mean survival time, dose: 0.25 mg/kg/injection, schedule: Q01DX009 (ip), vehicle: saline 98 % of control | endpoint: mean survival time, dose: 0.5 mg/kg/injection, schedule: Q01DX009 (ip), vehicle: saline with Tween-80 92 % of control | endpoint: mean survival time, dose: 0.5 mg/kg/injection, schedule: Q01DX009 (ip), vehicle: saline 104 % of control | endpoint: mean survival time, dose: 1.0 mg/kg/injection, schedule: Q01DX009 (ip), vehicle: saline with Tween-80 96 % of control | endpoint: mean survival time, dose: 1.0 mg/kg/injection, schedule: Q01DX009 (ip), vehicle: saline 104 % of control | endpoint: mean survival time, dose: 2.0 mg/kg/injection, schedule: Q01DX009 (ip), vehicle: saline with Tween-80 96 % of control | endpoint: mean survival time, dose: 2.0 mg/kg/injection, schedule: Q01DX009 (ip), vehicle: saline 105 % of control | endpoint: mean survival time, dose: 4.0 mg/kg/injection, schedule: Q01DX009 (ip), vehicle: saline 113 % of control | endpoint: mean survival time, dose: 8.0 mg/kg/injection, schedule: Q01DX009 (ip), vehicle: saline 115 % of control

CCOC(=O)c1ccc(NC(=O)Nc2ccc(Nc3ccccc3)cc2)cc1
inactive: endpoint: mean survival time, dose: 25.0 mg/kg/injection, schedule: Q04DX003 (ip), vehicle: saline with Tween-80 96 % of control | [9] 96 % of control and 102 % of control | endpoint: mean survival time, dose: 50.0 mg/kg/injection, schedule: Q04DX003 (ip), vehicle: saline with Tween-80 91 % of control | endpoint: mean survival time, dose: 100.0 mg/kg/injection, schedule: Q01DX001 (ip), vehicle: saline with Tween-80 100 % of control | [10] 96 % of control and 102 % of control | [6] 86 % of control and 97 % of control | [4] 92 % of control | endpoint: mean survival time, dose: 200.0 mg/kg/injection, schedule: Q01DX001 (ip), vehicle: saline with Tween-80 94 % of control | [11] 95 % of control and 98 % of control | [7] 87 % of control and 91 % of control | endpoint: mean survival time, dose: 400.0 mg/kg/injection, schedule: Q01DX001 (ip), vehicle: saline with Tween-80 103 % of control | [8] 87 % of control

COc1ccc([C@@]23Oc4cc(OC)cc(OC)c4[C@]2(O)[C@H](O)[C@H](C(=O)N(C)C)[C@H]3c2ccccc2)cc1
inactive: endpoint: median survival time, dose: 0.25 mg/kg/injection, schedule: Q01DX009 (ip), vehicle: Klucel (hydroxypropylcellulose) (HPC) 101 % of control | endpoint: median survival time, dose: 0.5 mg/kg/injection, schedule: Q01DX009 (ip), vehicle: Klucel (hydroxypropylcellulose) (HPC) 97 % of control | endpoint: median survival time, dose: 1.0 mg/kg/injection, schedule: Q01DX009 (ip), vehicle: Klucel (hydroxypropylcellulose) (HPC) 102 % of control | endpoint: median survival time, dose: 2.0 mg/kg/injection, schedule: Q01DX009 (ip), vehicle: Klucel (hydroxypropylcellulose) (HPC) 113 % of control | endpoint: median survival time, dose: 4.0 mg/kg/injection, schedule: Q01DX009 (ip), vehicle: Klucel (hydroxypropylcellulose) (HPC) 108 % of control

CC(C)(C)CC(C)(C)c1ccc(OCCOS(=O)(=O)c2cccc([N+](=O)[O-])c2)cc1
inactive: [9] 96 % of control | [10] 89 % of control | [11] 94 % of control

O=C(O)CSC1=NCCN1 (tested in a mixture with another compound)
inactive: endpoint: mean survival time, dose: 100.0 mg/kg/injection, schedule: Q01DX001 (ip), vehicle: saline 90 % of control | endpoint: mean survival time, dose: 200.0 mg/kg/injection, schedule: Q01DX001 (ip), vehicle: saline 93 % of control | endpoint: mean survival time, dose: 400.0 mg/kg/injection, schedule: Q01DX001 (ip), vehicle: saline 93 % of control

O=C(O)c1nnc(C(=O)O)nn1
inactive: endpoint: mean survival time, dose: 12.5 mg/kg/injection, schedule: Q01DX009 (ip), vehicle: water 100 % of control | endpoint: mean survival time, dose: 25.0 mg/kg/injection, schedule: Q01DX009 (ip), vehicle: water 100 % of control | endpoint: mean survival time, dose: 50.0 mg/kg/injection, schedule: Q01DX009 (ip), vehicle: water 95 % of control | endpoint: mean survival time, dose: 100.0 mg/kg/injection, schedule: Q01DX009 (ip), vehicle: water 94 % of control

Nc1ccccc1O
inactive: [10] 114 % of control | [1] 100 % of control | [11] 114 % of control | [2] 96 % of control | [3] 119 % of control

— PubChem BioAssay AID256 (DTP/NCI, 2004)
